Columns and labels:
Format in all cases: in vitro ADME
[1] = Clearance in microsomes, dog; details: 1 microM, read-out: CLint, Dog (L/h/kg) ± SD (converted)
Text: (§1) Deuterated compounds were compared to their non-deuterated parent counterparts to determine the impact of deuteration on clearance results

[2] = Clearance in hepatocytes, rat; details: read-out: CLint, Rat (L/h/kg) ± SD (converted)
Text: as §1

[3] = Clearance in hepatocytes, dog; details: read-out: CLint, Dog (L/h/kg) ± SD (converted)
Text: as §1

## [2H]C([2H])([2H])Oc1cnc(C(=O)Nc2ccc(F)c([C@]3(C)CC[C@@](F)(CF)C(N)=N3)c2)cn1 [Example 1, N-(3-((2S,5S)-6-amino-5-fluoro-5-(fluoromethyl)-2-methyl-2,3,4,5-tetrahydropyridin-2-yl)-4-fluorophenyl)-5-(methoxy-d3)pyrazine-2-carboxamide]
[1]
  CLint scaled at 1 µM: 5 L/h/kg
[2]; 0.1 microM
  CLint scaled at 0.1 µM: 1.5 L/h/kg
[2]; 0.3 microM
  CLint scaled at 0.3 µM: 1.2 L/h/kg
[2]; 1 microM
  CLint scaled at 1 µM: < 0.4 L/h/kg
[3]; 0.1 microM
  CLint scaled at 0.1 µM: 34 L/h/kg
[3]; 0.3 microM
  CLint scaled at 0.3 µM: 25 L/h/kg
[3]; 1 microM
  CLint scaled at 1 µM: 11 L/h/kg

— patent US20180186769A1, “6-AMINO-5-FLUORO-5-(FLUOROMETHYL)-2,3,4,5-TETRAHYDROPYRIDIN-2-YL-PHENYL-5-(METHOXY-D3)-PYRAZINE-2-CARBOXAMIDES AND FLUORINATED DERIVATIVES THEREOF AS BACE1 INHIBITORS” (H. Lundbeck A/S, priority 2016, published 2018)
